In patent publication US7888363B2, “Viral polymerase inhibitors” (Boehringer Ingelheim International GmbH, priority 2003, dated 2011):

molecular target: hepatitis C virus RNA dependant polymerase (NS5B) (Hepatitis C virus genotype 1b, UniProt P26663); assay: Inhibition of NS5B RNA dependent RNA polymerase activity; format: biochemical; details: Table 1; HCV NS5B polymerase
Method: A suitable assay is described in the examples.
Inhibition of NS5B RNA Dependent RNA Polymerase Activity
The compounds of the invention were tested for inhibitory activity against the hepatitis C virus RNA dependant polymerase (NS5B), according to protocol described in WO 03/010141

Chain of hepatitis C virus RNA dependant polymerase (NS5B) (P26663 2420-3010): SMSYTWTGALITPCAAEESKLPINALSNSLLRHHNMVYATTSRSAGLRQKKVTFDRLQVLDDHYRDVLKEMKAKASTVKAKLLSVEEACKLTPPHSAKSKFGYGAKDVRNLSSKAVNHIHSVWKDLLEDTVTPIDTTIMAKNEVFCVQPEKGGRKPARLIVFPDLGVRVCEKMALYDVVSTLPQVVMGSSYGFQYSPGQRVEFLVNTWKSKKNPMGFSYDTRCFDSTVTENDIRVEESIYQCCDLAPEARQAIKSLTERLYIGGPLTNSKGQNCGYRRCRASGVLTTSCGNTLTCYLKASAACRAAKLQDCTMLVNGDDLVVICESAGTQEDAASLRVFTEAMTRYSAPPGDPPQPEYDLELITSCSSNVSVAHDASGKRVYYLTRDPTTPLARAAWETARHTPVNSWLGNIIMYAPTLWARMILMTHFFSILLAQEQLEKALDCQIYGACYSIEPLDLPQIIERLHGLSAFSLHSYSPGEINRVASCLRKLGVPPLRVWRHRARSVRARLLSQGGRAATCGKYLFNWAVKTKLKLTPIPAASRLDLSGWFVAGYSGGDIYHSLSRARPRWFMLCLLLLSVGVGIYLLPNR

Question: With `CC(C)(C)C(=O)Cn1c(-c2ccoc2)c(C2CCCCC2)c2ccc(C(=O)O)cc21` [Example 1001] as the molecule, how does the IC50 read?
Answer: 0.2 to 1 µM

Question: Which IC50 does the source give for `CN1CCCN(C(=O)Cn2c(-c3ccoc3)c(C3CCCCC3)c3ccc(C(=O)O)cc32)CC1` [Example 1003] here?
Answer: < 0.2 µM

Question: For `CN(CCc1ccncc1)C(=O)Cn1c(-c2ccoc2)c(C2CCCCC2)c2ccc(C(=O)O)cc21` [Example 1004], which IC50 is on record?
Answer: < 0.2 µM

Question: How did the IC50 turn out when `CCN(Cc1ccncc1)C(=O)Cn1c(-c2ccoc2)c(C2CCCCC2)c2ccc(C(=O)O)cc21` [Example 1005] was run?
Answer: 0.2 to 1 µM

Question: Which IC50 does the source give for `CC(C)CN(C)C(=O)Cn1c(-c2ccoc2)c(C2CCCCC2)c2ccc(C(=O)O)cc21` [Example 1006] here?
Answer: 0.2 to 1 µM

Question: How did the IC50 turn out when `CCN(CC)CCN(CC)C(=O)Cn1c(-c2ccoc2)c(C2CCCCC2)c2ccc(C(=O)O)cc21` [Example 1007] was run?
Answer: < 0.2 µM

Question: Which IC50 does the source give for `CCCN(C)C(=O)Cn1c(-c2ccoc2)c(C2CCCCC2)c2ccc(C(=O)O)cc21` [Example 1008] here?
Answer: < 0.2 µM

Question: How did the IC50 turn out when `O=C(Cn1c(-c2ccoc2)c(C2CCCCC2)c2ccc(C(=O)O)cc21)NCCCN1CCOCC1` [Example 1009] was run?
Answer: 0.2 to 1 µM

Question: For `O=C(O)c1ccc2c(C3CCCCC3)c(-c3ccoc3)n(CC(=O)N3CCC(N4CCCCC4)CC3)c2c1` [Example 1010], which IC50 is on record?
Answer: < 0.2 µM

Question: For `CCCN(CCC)C(=O)Cn1c(-c2ccoc2)c(C2CCCCC2)c2ccc(C(=O)O)cc21` [Example 1011], which IC50 is on record?
Answer: 0.2 to 1 µM

Question: For `O=C(O)c1ccc2c(C3CCCCC3)c(-c3ccoc3)n(CC(=O)N3CCSCC3)c2c1` [Example 1012], which IC50 is on record?
Answer: < 0.2 µM

Question: Which IC50 does the source give for `CS(=O)(=O)NC(=O)Cn1c(-c2ccoc2)c(C2CCCCC2)c2ccc(C(=O)O)cc21` [Example 1013] here?
Answer: 0.2 to 1 µM

Question: How did the IC50 turn out when `COCCN(CCOC)C(=O)Cn1c(-c2ccco2)c(C2CCCCC2)c2ccc(C(=O)O)cc21` [Example 1014] was run?
Answer: 0.2 to 1 µM

Question: For `CCCN(CCOC)C(=O)Cn1c(-c2ccoc2)c(C2CCCCC2)c2ccc(C(=O)O)cc21` [Example 1015], which IC50 is on record?
Answer: 0.2 to 1 µM

Question: How did the IC50 turn out when `CCN(CC)C1CCN(C(=O)Cn2c(-c3ccoc3)c(C3CCCCC3)c3ccc(C(=O)O)cc32)C1` (centres unmarked) [Example 1016] was run?
Answer: < 0.2 µM

Question: Which IC50 does the source give for `CCN(CCOC)C(=O)Cn1c(-c2ccoc2)c(C2CCCCC2)c2ccc(C(=O)O)cc21` [Example 1017] here?
Answer: < 0.2 µM

Question: Which IC50 does the source give for `O=C(O)c1ccc2c(C3CCCCC3)c(-c3ccoc3)n(CC(=O)N3CC[C@@H]4CCCC[C@@H]4C3)c2c1` [Example 1018] here?
Answer: 1 to 10 µM

Question: Which IC50 does the source give for `CN(C)CCCN(C)C(=O)Cn1c(-c2ccoc2)c(C2CCCCC2)c2ccc(C(=O)O)cc21` [Example 1019] here?
Answer: < 0.2 µM

Question: With `CC1CN(C(=O)Cn2c(-c3ccoc3)c(C3CCCCC3)c3ccc(C(=O)O)cc32)CC(C)O1` (centres unmarked) [Example 1020] as the molecule, how does the IC50 read?
Answer: < 0.2 µM

Question: For `CCN(CC)CCN(C)C(=O)Cn1c(-c2ccoc2)c(C2CCCCC2)c2ccc(C(=O)O)cc21` [Example 1021], which IC50 is on record?
Answer: < 0.2 µM

Question: `CCN(CCN(C)C)C(=O)Cn1c(-c2ccoc2)c(C2CCCCC2)c2ccc(C(=O)O)cc21` [Example 1022] was tested. Which IC50 did it give?
Answer: 0.2 to 1 µM

Question: For `O=C(O)c1ccc2c(C3CCCCC3)c(-c3ccccc3)n(CC(=O)N3CCOCC3)c2c1` [Example 1023], which IC50 is on record?
Answer: < 0.2 µM

Question: `O=C(O)c1ccc2c(C3CCCCC3)c(-c3ccccc3)n(CC(=O)N3CCC(N4CCCC4)CC3)c2c1` [Example 1024] was tested. Which IC50 did it give?
Answer: < 0.2 µM

Question: Which IC50 does the source give for `CN(C)C(=O)Cn1c(-c2ccccc2)c(C2CCCCC2)c2ccc(C(=O)O)cc21` [Example 1025] here?
Answer: < 0.2 µM

Question: For `O=C(O)c1ccc2c(C3CCCCC3)c(-c3ccsc3)n(CC(=O)N3CCOCC3)c2c1` [Example 1027], which IC50 is on record?
Answer: < 0.2 µM

Question: `CN(C)C(=O)Cn1c(-c2ccsc2)c(C2CCCCC2)c2ccc(C(=O)O)cc21` [Example 1028] was tested. Which IC50 did it give?
Answer: < 0.2 µM

Question: For `O=C(O)c1ccc2c(C3CCCCC3)c(-c3ccco3)n(CC(=O)N3CCOCC3)c2c1` [Example 1030], which IC50 is on record?
Answer: < 0.2 µM

Question: For `CN(C)C(=O)Cn1c(-c2ccco2)c(C2CCCCC2)c2ccc(C(=O)O)cc21` [Example 1031], which IC50 is on record?
Answer: < 0.2 µM

Question: With `CC(C)NC(=O)Cn1c(-c2ccco2)c(C2CCCCC2)c2ccc(C(=O)O)cc21` [Example 1032] as the molecule, how does the IC50 read?
Answer: 0.2 to 1 µM

Question: With `O=C(O)c1ccc2c(C3CCCCC3)c(-c3cccs3)n(CC(=O)N3CCOCC3)c2c1` [Example 1033] as the molecule, how does the IC50 read?
Answer: < 0.2 µM

Question: For `O=C(O)c1ccc2c(C3CCCCC3)c(-c3cccs3)n(CC(=O)N3CCC(N4CCCC4)CC3)c2c1` [Example 1034], which IC50 is on record?
Answer: < 0.2 µM

Question: Which IC50 does the source give for `CN(C)C(=O)Cn1c(-c2cccs2)c(C2CCCCC2)c2ccc(C(=O)O)cc21` [Example 1035] here?
Answer: < 0.2 µM

Question: How did the IC50 turn out when `CC(C)NC(=O)Cn1c(-c2cccs2)c(C2CCCCC2)c2ccc(C(=O)O)cc21` [Example 1036] was run?
Answer: 0.2 to 1 µM

Question: For `O=C(O)c1ccc2c(C3CCCCC3)c(-c3ccsc3)n(CC(=O)N3CCC(N4CCCC4)CC3)c2c1` [Example 1037], which IC50 is on record?
Answer: < 0.2 µM

Question: With `O=C(O)c1ccc2c(C3CCCCC3)c(-c3ccco3)n(CC(=O)N3CCC(N4CCCC4)CC3)c2c1` [Example 1038] as the molecule, how does the IC50 read?
Answer: < 0.2 µM

Question: For `CN(C)C(=O)Cn1c(-c2cccn2C)c(C2CCCCC2)c2ccc(C(=O)O)cc21` [Example 1039], which IC50 is on record?
Answer: 0.2 to 1 µM

Question: For `O=C(O)c1ccc2c(C3CCCCC3)c(-c3csc(N4CCCCC4)n3)n(CC(=O)N3CCOCC3)c2c1` [Example 1040], which IC50 is on record?
Answer: 0.2 to 1 µM

Question: How did the IC50 turn out when `CC(C)(C)Nc1nc(-c2c(C3CCCCC3)c3ccc(C(=O)O)cc3n2CC(=O)N2CCOCC2)cs1` [Example 1041] was run?
Answer: 0.2 to 1 µM

Question: With `O=C(O)c1ccc2c(C3CCCCC3)c(-c3cc4ccccc4s3)n(CC(=O)N3CCOCC3)c2c1` [Example 1042] as the molecule, how does the IC50 read?
Answer: 0.2 to 1 µM

Question: Which IC50 does the source give for `CN(C)C(=O)Cn1c(-c2ccoc2)c(C2CCCC2)c2ccc(C(=O)O)cc21` [Example 1044] here?
Answer: < 0.2 µM

Question: How did the IC50 turn out when `O=C(O)c1ccc2c(C3CCCCC3)c(-c3cnccn3)n(CC(=O)N3CCC(N4CCCC4)CC3)c2c1` [Example 1045] was run?
Answer: < 0.2 µM

Question: `CN(C)C(=O)Cn1c(-c2cc3ccccc3s2)c(C2CCCCC2)c2ccc(C(=O)O)cc21` [Example 1046] was tested. Which IC50 did it give?
Answer: 1 to 10 µM

Question: For `O=C(O)c1ccc2c(C3CCCCC3)c(-c3csc4ccccc34)n(CC(=O)N3CCOCC3)c2c1` [Example 1047], which IC50 is on record?
Answer: 1 to 10 µM

Question: For `O=C(O)c1ccc2c(C3CCCCC3)c(-c3csc4ccccc34)n(CC(=O)N3CCC(N4CCCC4)CC3)c2c1` [Example 1048], which IC50 is on record?
Answer: 0.2 to 1 µM

Question: With `O=C(O)c1ccc2c(C3CCCCC3)c(-c3cc4ccccc4s3)n(CC(=O)N3CCC(N4CCCC4)CC3)c2c1` [Example 1049] as the molecule, how does the IC50 read?
Answer: 0.2 to 1 µM

Question: How did the IC50 turn out when `Nc1cccc(-c2c(C3CCCCC3)c3ccc(C(=O)O)cc3n2CC(=O)N2CCC(N3CCCC3)CC2)n1` [Example 1050] was run?
Answer: < 0.2 µM

Question: `CC(C)(NC(=O)Cn1c(-c2ccoc2)c(C2CCCCC2)c2ccc(C(=O)O)cc21)C(=O)Nc1ccc(/C=C/C(=O)O)cc1` [Example 1051] was tested. Which IC50 did it give?
Answer: < 0.2 µM

Question: With `CC(C)(NC(=O)Cn1c(-c2ccoc2)c(C2CCCCC2)c2ccc(C(=O)O)cc21)C(=O)Nc1ccc(-c2nc(C(=O)O)cs2)cc1` [Example 1052] as the molecule, how does the IC50 read?
Answer: < 0.2 µM

Question: For `CC(C)(NC(=O)Cn1c(-c2ccoc2)c(C2CCCCC2)c2ccc(C(=O)O)cc21)C(=O)Nc1ccc(-c2ccc(C(=O)O)o2)cc1` [Example 1053], which IC50 is on record?
Answer: < 0.2 µM

Question: For `Cn1c(C(=O)O)cc2cc(NC(=O)C(C)(C)NC(=O)Cn3c(-c4ccoc4)c(C4CCCCC4)c4ccc(C(=O)O)cc43)ccc21` [Example 1054], which IC50 is on record?
Answer: < 0.2 µM

Question: Which IC50 does the source give for `O=C(Cn1c(-c2ccoc2)c(C2CCCCC2)c2ccc(C(=O)O)cc21)N[C@@H](Cc1ccc(O)cc1)C(=O)O` [Example 1055] here?
Answer: < 0.2 µM

Question: For `O=C(Cn1c(-c2ccoc2)c(C2CCCCC2)c2ccc(C(=O)O)cc21)NCc1ccco1` [Example 1056], which IC50 is on record?
Answer: 0.2 to 1 µM

same assay, conditions: Table 4; class ranges

Question: With `CN1CCN(C(=O)Cn2c(-c3ccoc3)c(C3CCCCC3)c3ccc(C(=O)NC4CC4c4ccccc4)cc32)CC1` (racemic) [Example 4038] as the molecule, how does the IC50 read?
Answer: 0.2 to 1 µM
